Type in all cases: cell-based
What all share (details): Fibroblast

The test system of assay [1] is IL-6 secretion. The assay is described as follows: Inhibition of IL-6 secretion in human dermal fibroblasts (Example 7.1). As for the experimental part: (§1) The objective of this test was to assess the anti-inflammatory potential of in vitro extracts, using human dermal fibroblast cultures. The statistical significance (p<0.05) of the data was verified by the analysis of variance (One-Way ANOVA) followed by a Tukey multiple comparison using the SYSTAT 10 software.
(§2) Human fibroblasts derived from the dermis were incubated with lipopolysaccharide (LPS) of Escherichia coli to induce the secretion of pro-inflammatory citokines IL-6 and IL-8 (Interleukin 6 and 8). The anti-inflammatory potential of the sample was identified by the reduction in the secretion of the pro-inflammatory markers. • Material used: Dermis-derived human fibroblasts, kept in culture until the tenth passage at most. […]
(§3) After stimulation, supernatants were collected, stored at −20° C. and analysed by ELISA (described below). In order to keep cell viability after stimulation, the cells were incubated with a Neutral Red solution for 3 hours and after washing with 200 μl of PBS, 200 μl of development solution were added, and the reading was performed at 540 nm. […]
(§4) For the ELISA test, 96-well plates were used. The quantification of pro-inflammatory markers was determined from the comparisons with the standard curves specifically constructed for IL-6 or IL-8. […]

In assay [2] the test system is IL-6 secretion. The assay can be described thus: Inhibition of IL-6 secretion in human dermal fibroblasts stimulated with LPS or UVB (Example 7.2). Here is the method:
(§5) Dermis-derived human fibroblasts were incubated with lipopolysaccharide (LPS) or UV to induce the secretion of pro-inflammatory markers IL-6 and IL-8. The anti-inflammatory potential of the sample was identified by the reduction in the secretion of the pro-inflammatory markers. Material used: Dermis-derived human fibroblasts, kept in culture until the tenth passage at most. Sterile-culture plates with 96 wells, non-sterile plates with 96 wells, conical tubes of 15 ml and 50 ml, radiation chamber with UVB lamp. 96-well plates were prepared with 2×10^4 cells/well in 100 μl μl of DMEM containing 10% SFB. The cells were incubated overnight in a CO2 oven. The culture medium was discarded and the wells were washed with 200 μl PBS. 100 μl of DMEM containing 1% SFB and the suitable stimuli were added. Incubation was carried out in a CO2 oven overnight. […] 100 μl of PBS and the suitable stimuli were added. […] After stimulation, supernatants were collected, stored at −20° C. and assessed by ELISA (described below). In order to keep cell viability after stimulation, the cells were incubated with a Neutral Red solution for 3 hours and, after washing with 200 μl of PBS, 200 μl of development solution were added, and the reading was performed at 540 nm. […] The quantification of pro-inflammatory markers was determined from the comparisons with the standard curves specifically constructed for IL-6 or IL-8. […]

Assay [3] relates to IL-8 secretion. The assay is described as follows: Inhibition of IL-8 secretion in human dermal fibroblasts (Example 7.1). As for the experimental part: as §1, §2, §3, §4
Assay [4] deals with IL-8 secretion. The assay can be described thus: Inhibition of IL-8 secretion in human dermal fibroblasts stimulated with LPS or UVB (Example 7.2). As for the experimental part:
as §5

[5] abbreviates: 5 uM + LPS 10 ng/ml, reference LPS.
Setting [6] is: 5 uM, no LPS, reference Control.
[7] abbreviates: LPS 10 ng/ml + 5 uM, reference LPS.
Setting [8] is: light or radiation study, UVB 0.23 J/cm2 + 5 uM, reference UVB.

This note sets out measurements from US20110135774A1, “Process for Preparing a Plant Extract of Passiflora Alata and Use of Said Extract in Cosmetic and Pharmaceutical Compositions” (priority 2007, published 2011).

One may read the inhibition as how much of the control response was suppressed. As for `C[C@@H]1C[C@H]2[C@@H]3CCC4=CC(=O)C=C[C@]4(C)[C@@]3(F)[C@@H](O)C[C@]2(C)[C@@]1(O)C(=O)CO` [Dexamethasone], the inhibition at 5 µM in the assay on IL-6 secretion [1] (setting [5]) came out at 96%; in the assay on IL-6 secretion [1] (setting [6]), 71%; in the assay with IL-6 secretion [2] (setting [7]), 94%; in the assay with IL-8 secretion [3] (setting [5]), 53%; in the assay on IL-8 secretion [3] (setting [6]), 68%; with IL-8 secretion [4] (setting [7]), 82%.

As for `C[C@]12CCC(=O)C=C1CC[C@@H]1[C@@H]2[C@@H](O)C[C@@]2(C)[C@H]1CC[C@]2(O)C(=O)CO` [Hydrocortisone], the inhibition at 5 µM with IL-6 secretion [2] (setting [8]) came to 71%; in the assay on IL-8 secretion [4] (setting [8]) it was 79%.
